From patent publication US6515197B1, “Transgenic mouse expressing a polynucleotide encoding a human ataxin-2 polypeptide” (Cedars-Sinai Medical Center, priority 2000, dated 2003)

System: proteasomal pathway
Experiment: lactacystin treatment of 293T cells transfected with SCA2 constructs, western blot
Assay type: cell-based
Description: To further confirm that the 42 kD fragment was generated preferably by ataxin-2 with an expanded polyQ tract, and to investigate whether mutant ataxin-2 was ubiquitinated, 293T cells were transfected with pEGFP-SCA2(Q22) or pEGFP-SCA2(Q58), followed by treatment with lactacystin for 24 hours to inhibit the proteasomal pathway. Briefly, to generate GFP fusion with SCA2, a full-length SCA2 cDNA including nucleotides 145 to 4,481 (Pulst et al., Nature Genet., 14:269-276 (1996)) was assembled in the pBluescript vector with 22 or 58 CAG repeats. To generate ataxin-2 expression plasmids, the full-length SCA2 cDNA containing either the 22 or 58 CAG repeat was shuttled into the pEGFPC2 (Clontech; Palo Alto Calif.) or pcDNA vectors (Invitrogen; Carlsbad Calif.). These constructs were named pEGFP-SCA22, pEGFP-SCA58, pcDNA-SCA22 or pcDNA-SCA58.
Transient expression of pEGFP-SCA2 constructs was analyzed in 293T cells. To investigate ubiquitination of ataxin-2, 293T cells growing at 60% confluency in 100-mm Petri dishes were transfected with either pEGFP-SCA2 or pcDNA-SCA2 constructs (10 μg) containing either 22 or 58 CAG repeats. Transfected cells were grown overnight and then treated with culture medium with or without lactacystin (10 μM) for 24 h. Cells were incubated with triple detergent buffer (0.5% sodium dodecyl sulfate (SDS), 1% Triton-X 100, 0.5% deoxycholate, 100 mM Tris-HCl, pH 8.0, 150 mM NaCl, and Sigma mammalian protease inhibitors cocktail (Sigma; St. Louis Mo.)) for 1 h on ice with occasional vortexing. Protein extracts were centrifuged at maximum speed in an Eppendorf microfuge at 4° C. for 30 min, and pellets were resuspended in triple detergent buffer. Both protein extract and pellet suspension were stored at −70° C. For western-blot analysis, 100 μg total protein extract per lane was mixed with SDS-polyacrylamide gel electrophoresis (PAGE) sample buffer and incubated for 2 h at 37° C. before loading on to a 4-15% SDS-PAGE gradient gel. Western blots were detected with SCA2A, 1C2 and ubiquitin antibodies.
Western blots were performed on transfected 293 cell protein extracts and insoluble pellets using the GFP or ubiquitin antibody. Untreated cells served as controls. The GFP antibody detected the full-length GFP-ataxin-2 with Q22 and Q58 at 200 kD and an additional band at 70 kD in 293T cells transfected with pEGFP-SCA2(Q58). Neither the 70 kD nor the 200 kD proteins were detected in untransfected 293T protein extracts.
To investigate whether the GFP fusion caused any interference with ubiquitin conjugation, 293T cells were transfected with pcDNA-SCA2(Q22) or pcDNA-SCA2(58) and treated with lactacystin.

With `CC(=O)N[C@@H](CSC(=O)[C@]1([C@@H](O)C(C)C)NC(=O)[C@H](C)[C@@H]1O)C(=O)O` [lactacystin] the “levels of GFP-tagged ataxin-2” value (293T cells transfected with pEGFP-SCA2(Q22) or (Q58), lactacystin 10 μM for 24 h, versus untreated cells, GFP antibody) was “increased levels”, the “levels of ubiquitin-conjugated protein complexes” value (293T cells transfected with pEGFP-SCA2(Q22) or (Q58), lactacystin 10 μM for 24 h, versus untreated cells, ubiquitin antibody) was “increased levels” and the “total amount of ataxin-2(Q58) (p180)” value (293T cells transfected with pcDNA-SCA2(58), lactacystin-treated, 1C2 or ubiquitin antibodies) was “increased”. For the same compound, the “formation of large ataxin-2 aggregates” value (293T cells transfected with pcDNA-SCA2(Q22) or pcDNA-SCA2(58), lactacystin-treated, western blot) was “no large ataxin-2 aggregates were found”.
